Data from patent publication US20240293551A1, “USE OF ST-TYPE LIPID COMPOUNDS IN PREPARATION OF NUCLEIC ACID DELIVERY REAGENT AND RELATED PRODUCT” (INSTITUTE OF BASIC MEDICAL SCIENCES CHINESE ACADEMY OF …, priority 2021, published 2024).

Tested on: PGY-sRNA-26
Experiment: In vivo delivery study of lipid-nucleic acid mixture (oral gavage, RT-qPCR of PGY-sRNA-26 in tissues)
Design: species or system mouse
Settings: C57BL/6 mice, gavage, 100 μg lipid: 10 nmol PGY-sRNA-26, 12 hours; for delivery efficacy over each tissue and blood tested (broad-spectrum delivery): all tissues and blood tested; for oral delivery of single-stranded sRNA nucleic acids into mouse intestinal tissue: intestine
Description: 10 nmol of small RNA (as shown in Table 2) was dissolved in 400 μl of DEPC-treated water in a glass tube, 10 μl of the corresponding lipid stock solution was added such that the lipid mass in the system was 100 μg. The mixture was mixed thoroughly, heated in a 90° C. water bath for 15 minutes, and then cooled naturally to obtain the lipid nucleic acid mixture of lipid and small RNA.
C57BL/6 male mice, approximately 6 weeks old, weighing 20-24 g, were obtained from Beijing Vital River Laboratory Animal Technology Co., Ltd. The mice were housed in the SPF-grade animal facility at the Animal Center of the Institute of Basic Medical Sciences, Chinese Academy of Medical Sciences. The mice were fasted for 12 hours before gavage administration.
The resultant lipid nucleic acid mixture was orally administered to each mouse at a dose of 100 μg lipid: 10 nmol single-stranded 3′-methylated small RNA PGY-sRNA-26.
• 1) Blank group (n=4): mice were administered with 500 μl saline by gavage, this group served as a blank control; • 2) Free uptake group (n=4): mice were directly administered with small RNA PGY-sRNA-26 solution (10 nmol/mouse, 500 μl) by gavage, this group served as a negative control; • 3) Lipid-treated group (n=4): mice were administered with 500 μl lipid nucleic acid mixture prepared in step 2 by gavage.
After 12 hours of gavage administration, 500 μl blood from the eyeball of each mouse was sampled, added to 1.5 ml Trizol Reagent LS (purchased from Invitrogen), thoroughly mixed for lysis. 3 ml of Trizol Reagent LSwas added to tissue samples and homogenized for complete lysis, wherein the sampled tissues include heart, liver, spleen, lung, kidney, stomach, intestine, brain, blood, femur. RNA was extracted from 1 ml of the blood or the tissue lysate following the steps below: • Centrifuge at 4° C., 12,000 rpm for 5 min, discard the precipitate, transfer Trizol to a new centrifuge tube; • Add chloroform at 200 μL chloroform/mL Trizol, shake well, stand at room temperature for 5 min; • Centrifuge at 4° C., 12,000 rpm for 15 min; • Take the upper aqueous phase to another centrifuge tube, add isopropanol at 0.4 mL isopropanol/mL Trizol, mix well, and stand at low temperature for 10-20 min; • Centrifuge at 4° C., 12,000 rpm for 15 min, discard the supernatant, RNA precipitated at the bottom of the tube; • Add 1 mL of 75% ethanol, gently shake the centrifuge tube, suspend the precipitate; • Centrifuge at 4° C., 12,000 rpm for 15 min, discard the supernatant, add 1 mL of 75% ethanol, gently shake the centrifuge tube, suspend the precipitate; • Centrifuge at 4° C., 12,000 rpm for 15 min, discard the supernatant, air-dry at room temperature, dissolve RNA samples in 50 μL RNase-free H2O, measure OD value to quantify RNA concentration. 3.3 Reverse Transcription of sRNA to cDNA:
The reverse transcription system is as follows: Template RNA (200 ng/μL) 10 μL, 10×RT Buffer 2.0 μL, 25×dNTP Mix (100 mM) 0.8 μL, U6 RT stem-loop primer (10 μM) 2.0 μL, PGY-sRNA-26 RT stem-loop primer (10 μM) 2.0 μL, MultiScribe™ Reverse Transcriptase (50 U/μL) 1.0 μL, RNAse Inhibitor (40 U/μL) 1.0 μL, nuclease-free H2O 1.2 μL. After transient centrifugation, the reverse transcription system was placed in a PCR machine with the following reaction conditions: (1) 25° C., 10 min; (2) 37° C., 120 min; (3) 85° C., 5 min; (4) 4° C., stop reaction. After the reaction, add 20 μL RNAse-free ddH2O, adjust the final volume to 40 μL. The stem-loop primers used in this reverse transcription process were synthesized by Beijing Tianyi Huiyuan Biotechnology Co., Ltd. (U6 was used as a standard reference gene to calculate its relative expression, because U6 RT primer was used as a reference gene in relative quantification of RT-qPCR reactions for small RNA): […]

| Structure (SMILES) | delivery efficacy over each tissue and blood tested (broad-spectrum delivery) | oral delivery of single-stranded sRNA nucleic acids into mouse blood | oral delivery of single-stranded sRNA nucleic acids into mouse brain tissue | oral delivery of single-stranded sRNA nucleic acids into mouse heart tissue | oral delivery of single-stranded sRNA nucleic acids into mouse intestinal tissue | oral delivery of single-stranded sRNA nucleic acids into mouse kidney tissue | oral delivery of single-stranded sRNA nucleic acids into mouse liver tissue | oral delivery of single-stranded sRNA nucleic acids into mouse lung tissue | oral delivery of single-stranded sRNA nucleic acids into mouse spleen tissue | oral delivery of single-stranded sRNA nucleic acids into mouse stomach tissue | oral delivery of single-stranded sRNA nucleic acids into mouse femur |
| --- | --- | --- | --- | --- | --- | --- | --- | --- | --- | --- | --- |
| CC(C)[C@H](C)[C@@H](O)[C@H](O)[C@@H](C)[C@H]1CC[C@H]2[C@@H]3COC(=O)[C@H]4C[C@H](O)[C@H](O)C[C@]4(C)[C@H]3CC[C@]12C [Lipid 508] | exhibited the best delivery efficacy | can effectively orally deliver | can effectively orally deliver | can effectively orally deliver | can effectively orally deliver | can effectively orally deliver | can effectively orally deliver | can effectively orally deliver | can effectively orally deliver | can effectively orally deliver | – |
| C[C@]1(O)CC[C@H]2[C@@H]3CCC4=CC(=O)CC[C@]4(C)[C@@]3(F)[C@@H](O)C[C@@]21C [Lipid 532] | exhibited the best delivery efficacy | can effectively orally deliver | – | can effectively orally deliver | can effectively orally deliver | can effectively orally deliver | can effectively orally deliver | can effectively orally deliver | can effectively orally deliver | can effectively orally deliver | can effectively orally deliver |
| C[C@]12CCC(=O)C=C1CC[C@H]1[C@@H]3CC[C@](O)(C(=O)CO)[C@@]3(C)C[C@H](O)[C@@]12F [Lipid 534] | exhibited the best delivery efficacy | can effectively orally deliver | can effectively orally deliver | can effectively orally deliver | can effectively orally deliver | can effectively orally deliver | can effectively orally deliver | can effectively orally deliver | can effectively orally deliver | can effectively orally deliver | can effectively orally deliver |
| CC(C)CC[C@@H](O)[C@](C)(O)[C@H]1CC[C@@]2(O)C3=CC(=O)[C@@H]4C[C@@H](O)[C@@H](O)C[C@]4(C)[C@H]3CC[C@]12C [Lipid 538] | exhibited the best delivery efficacy | can effectively orally deliver | can effectively orally deliver | can effectively orally deliver | can effectively orally deliver | can effectively orally deliver | can effectively orally deliver | can effectively orally deliver | can effectively orally deliver | can effectively orally deliver | can effectively orally deliver |
| C[C@]12CCC(=O)C[C@@H]1CC[C@@H]1[C@@H]2CC[C@@]2(C)[C@H]1CC[C@]2(C)O [Lipid 539] | exhibited the best delivery efficacy | can effectively orally deliver | can effectively orally deliver | can effectively orally deliver | can effectively orally deliver | can effectively orally deliver | can effectively orally deliver | can effectively orally deliver | can effectively orally deliver | can effectively orally deliver | can effectively orally deliver |
| C=C1/C(=C\C=C2/CCC[C@]3(C)[C@@H]([C@H](C)OCCC(C)(C)O)CC[C@@H]23)C[C@@H](O)C[C@@H]1O [Lipid 540] | exhibited the best delivery efficacy | can effectively orally deliver | can effectively orally deliver | can effectively orally deliver | can effectively orally deliver | can effectively orally deliver | can effectively orally deliver | can effectively orally deliver | can effectively orally deliver | can effectively orally deliver | can effectively orally deliver |
